Experimental data from US9630941B2 (priority 2008, dated 2017).

Columns and labels:
[1] = Thermal stability, 120° C. for 10 min; type: physicochemical; details: for CBN content of the sample after heating / Drug remaining / THC content of the sample after heating / Drug remaining (%): 120° C. for 10 min; for Drug remaining (%): % of initial; for CBN content of the sample, initial / Initial, μg (drug itself) / THC content of the sample, initial: before heating
Protocol: C. Thermal Stability—120° C. for 10 min.

[2] = Bioreversion: plasma stability, porcine plasma; type: in vitro ADME
[3] = Chemical stability pH dependent at 25° C.; type: physicochemical
Protocol: B. Chemical Stability pH Dependent at 25° C.

[4] = Porcine buccal tissue homogenate stability; type: in vitro ADME; details: protein concentration 2 mg/ml
Protocol: (§1) b. Porcine Buccal Tissue Homogenate Stability
(§2) Protein Concentration 2 mg/ml

[5] = Control (IPBS) stability for the buccal homogenate study; type: physicochemical
Protocol: as §1, §2

[6] = Aqueous solubility, pH dependent; type: physicochemical

Row | SMILES | Drug loading (%) [1] | CBN content of the sample after heating [1] | Drug remaining [1] | THC content of the sample after heating [1] | Drug remaining (%) [1] | CBN content of the sample, initial [1] | Initial, μg (drug itself) [1] | THC content of the sample, initial [1] | K [2] | T1/2 [2] | First order rate constant ([3]; Buffer pH 5.0, 25° C.) | First order rate constant ([3]; Buffer pH 7.0, 25° C.) | Aqueous Solubility ([6]; H20) | Aqueous Solubility ([6]; Water) | Aqueous Solubility ([6]; pH 1.2) | Aqueous Solubility ([6]; pH 2) | other results
1 | CCCCCc1cc(OC(=O)CCCc2ccc(NC(=O)CCC(=O)O)cc2)c2c(c1)OC(C)(C)[C@@H]1CCC(C)=C[C@@H]21 [THC-APB-HS (14), THC-4(4-aminophenyl)butyrate-hemisuccinate] | 96.66 ± 2.18% | 38.36 ± 9.70 µg | 1518.84 ± 34.38 µg | 0 µg | (104.81 ± 4.74) % | 47.63 ± 9.92 µg | 1449.90 ± 32.76 µg | 0 µg | Stable | Stable | 0.00368 h⁻¹ | Stable |  |  |  |  | First order rate constant ([3]; Buffer pH 9.0, 25° C.): Stable; First order rate constant ([3]; Water, 25° C.): 0.00481 h⁻¹
2 | CCCCCc1cc(OC(=O)[C@@H](N)Cc2c[nH]c3ccccc23)c2c(c1)OC(C)(C)[C@@H]1CCC(C)=C[C@@H]21 [THC-Tryptophanate (10), Δ^9-THC-tryptophinate] | 89.84 ± 4.53% | 16.63 ± 2.63 µg | 1216.70 ± 32.88 µg | 96.10 ± 16.64 µg | (90.47 ± 7.00) % | 25.59 ± 2.26 µg | 1347.57 ± 67.93 µg | 97.38 ± 6.39 µg | 48.55 ± 5.90 ×10^−2 min^−1 | 1.44 ± 0.17 min | 0.00829 h⁻¹ | 0.03803 h⁻¹ |  |  |  |  | K [4]: 9.06 ± 1.26 ×10^−3 min^−1; T1/2 [4]: 77.27 ± 10.73 min; K [5]: 0.77 ± 0.02 ×10^−3 min^−1
3 | CCCCCc1cc(OC(=O)C(N)Cc2c[nH]c3ccccc23)c2c(c1)OC(C)(C)C1CCC(C)=CC21.O=C(O)CC(=O)O (stereo not shown) [THC-Tryptophanate Malonate] |  |  |  |  |  |  |  |  |  |  |  |  | 13.27 ± 14.72 µg/mL | 8.02 ± 8.90 µM | 1.58 ± 0.19 µg/mL | 4.65 ± 0.31 µg/mL | Aqueous Solubility ([6]; pH 1.2, listed as THC-Tryptophan Malonate): 0.95 ± 0.12 µM; Aqueous Solubility ([6]; pH 2, listed as THC-Tryptophan Malonate): 2.81 ± 0.19 µM
4 | CCCCCc1cc(OC(=O)[C@@H](N)C(C)C)c2c(c1)OC(C)(C)C1CCC(C)=CC21.O=C(O)CC(=O)O (stereo partly shown) [THC-Valinate malonate] |  |  |  |  |  |  |  |  |  |  |  |  | 1.21 ± 0.61 µg/mL | 2.33 ± 1.19 µM | 53.63 ± 1.09 µg/mL | 118.42 ± 5.07 µg/mL | Aqueous Solubility ([6]; pH 1.2, listed as THC-Valine malonate): 103.61 ± 2.11 µM; Aqueous Solubility ([6]; pH 2, listed as THC-Valine malonate): 228.78 ± 9.79 µM; Aqueous Solubility ([6]; pH 3): 50.03 ± 1.80 µg/mL; Aqueous Solubility ([6]; pH 3, listed as THC-Valine malonate): 96.65 ± 3.49 µM; Aqueous Solubility ([6]; pH 4): 13.92 ± 1.56 µg/mL; Aqueous Solubility ([6]; pH 4, listed as THC-Valine malonate): 26.88 ± 3.01 µM; Aqueous Solubility ([6]; pH 5): 1.22 ± 0.00 µg/mL; Aqueous Solubility ([6]; pH 5, listed as THC-Valine malonate): 2.36 ± 0.01 µM; Aqueous Solubility ([6]; pH 6): 0.13 ± 0.02 µg/mL; Aqueous Solubility ([6]; pH 6, listed as THC-Valine malonate): 0.25 ± 0.04 µM; Aqueous Solubility ([6]; pH 7): 0.05 ± 0.02 µg/mL; Aqueous Solubility ([6]; pH 7, listed as THC-Valine malonate): 0.11 ± 0.03 µM; Aqueous Solubility ([6]; pH 8): 0.06 ± 0.00 µg/mL; Aqueous Solubility ([6]; pH 8, listed as THC-Valine malonate): 0.12 ± 0.01 µM; Aqueous Solubility ([6]; pH 9): 0.14 ± 0.02 µg/mL; Aqueous Solubility ([6]; pH 9, listed as THC-Valine malonate): 0.27 ± 0.03 µM
